Reference: patent publication US20100152274A1, “CRYSTALLINE FORMS OF ATORVASTATIN 4-(NITROOXY) BUTYL ESTER” (Nicox S.A., priority 2007, published 2010)
“Also recorded” adds a separate entry of the source.

Columns and labels:
Assay type in all cases: physicochemical
[1] = Stability at 40° C. and 75% of relative humidity, open vials, monitored by Raman spectroscopy and PXRD; conditions: for Stability in the reported conditions (heat and humidity): 40° C. and 75% r.h., summary statement; for Change of solid form by PXRD and Raman: open vials, 40° C., 75% relative humidity, after one and four weeks; for RESULTING FORM: Storage at 40° C. and 75% r.h., 28 d.
Procedure: Stability at 40° C. and 75% of relative humidity of atorvastatin 4-(nitrooxy)butyl ester A and form B in comparison with the amorphous form was assessed. Atorvastatin 4-(nitrooxy)butyl ester form A, form B and amorphous were stored in open vials for one month at 40° C. and in presence of 75% of relative humidity, and the samples were monitored by Raman spectroscopy and by PXRD after one and four weeks.

[2] = Stability of amorphous form in aqueous suspension at room temperature, monitored by Raman spectroscopy and PXRD; conditions: for RESULTING FORM: Suspension in H2O, rt
Procedure: Stability of amorphous atorvastatin 4-(nitrooxy)butyl ester in aqueous suspension was assessed. Amorphous atorvastatin 4-(nitrooxy)butyl ester was suspended in water at room temperature while stirring and monitored by Raman spectroscopy after one, seven and twenty-eight days.

[3] = General stability statements (humidity, water, organic solvents, heat); conditions: no test details

SMILES | Stability in the reported conditions (heat and humidity) ([1]; listed as Amorphous form) | Change of solid form by PXRD and Raman ([1]; listed as amorphous atorvastatin 4-(nitrooxy)butyl ester) | RESULTING FORM ([2]; 1 d.) | RESULTING FORM ([2]; 1 d., listed as Amorphous atorvastatin 4-(nitrooxy)butyl ester) | RESULTING FORM ([2]; 7 d.) | RESULTING FORM ([2]; 7 d., listed as Amorphous atorvastatin 4-(nitrooxy)butyl ester) | RESULTING FORM ([2]; 28 d.) | RESULTING FORM ([2]; 28 d., listed as Amorphous atorvastatin 4-(nitrooxy)butyl ester) | Stability in aqueous suspension ([2]; room temperature, summary statement) | Stability (general statement) ([3]; listed as amorphous form of Atorvastatin 4-(nitrooxy)butyl ester) | Stability in the reported conditions (heat and humidity) [1] | RESULTING FORM [1] | Change of solid form by PXRD and Raman [1] | Stability (general statement) [3]
CC(C)c1c(C(=O)Nc2ccccc2)c(-c2ccccc2)c(-c2ccc(F)cc2)n1CC[C@@H](O)C[C@@H](O)CC(=O)OCCCCO[N+](=O)[O-] [Amorphous, atorvastatin 4-(nitrooxy)butyl ester] | not stable, showing rapid conversion to form B | converts to form B | Amorphous | pure amorphous | Amorphous (+B) | detectable amount of form B was observed; also recorded: start of crystallization of form B | Amorphous + B | mixture of amorphous form and form B | not stable in aqueous suspension at room temperature | unstable at humidity conditions, in organic solvents and in stressed thermal conditions | – | – | – | –
CC(C)c1c(C(=O)Nc2ccccc2)c(-c2ccccc2)c(-c2ccc(F)cc2)n1CC[C@@H](O)C[C@@H](O)CC(=O)OCCCCO[N+](=O)[O-] [Form B, (βR,δR)-2(4-fluorophenyl)-β,δ-dihydroxy-5-(1-methylethyl)-3-phenyl-4-[(phenylamino)carbon-yl]-1H-pyrrole-1-heptanoic acid 4-(nitrooxy)butyl ester] | – | – | – | – | – | – | – | – | – | – | stable in the reported conditions for at least four weeks | Form B | no differences in the solid form | good stability in water, in organic solvents, and when exposed to heat and humidity
CC(C)c1c(C(=O)Nc2ccccc2)c(-c2ccccc2)c(-c2ccc(F)cc2)n1CC[C@@H](O)C[C@@H](O)CC(=O)OCCCCO[N+](=O)[O-] [Form A, (βR,δR)-2(4-fluorophenyl)-β,δ-dihydroxy-5-(1-methylethyl)-3-phenyl-4-[(phenylamino)carbon-yl]-1H-pyrrole-1-heptanoic acid 4-(nitrooxy)butyl ester] | – | – | – | – | – | – | – | – | – | – | stable in the reported conditions for at least four weeks | Form A | no differences in the solid form | good stability in water, in organic solvents, and when exposed to heat and humidity
